Data taken from US12275684B2, “Methods for making and using endoxifen” (Atossa Therapeutics, Inc., priority 2017, dated 2025).
Where two headings read alike, the source gives them in different places.

Test: Placebo controlled, dose escalation pharmacokinetic study of oral (Z)-Endoxifen capsules (serum endoxifen; incl. accumulation ratios and dose linearity)
Format: in vivo, human
Conditions: for AUC(0-t) / Cmax / Tmax / half-life / AUC(0-inf) / AUC / Vd/F: female, human, serum, po; for AUC(0-inf): read-out: AUC0-inf; for AUC: read-out: AUC to last time point; for Vd/F: read-out: volume of distribution (Vd/F); for time to attain steady state: once daily oral dosing
From the text: An objective of the study was to assess the safety and tolerability of oral (Z)-Endoxifen when administered […] orally as a capsule to healthy female volunteers. A secondary objective was to assess the pharmacokinetics of multiple doses of oral (Z)-Endoxifen in the subjects.
Generally, healthy female volunteers aged ≥18 years and ≤65 years were enrolled. 24 participants were enrolled in 3 cohorts and will be administered study drug orally. Three dose levels of orally administered (Z)-Endoxifen were investigated in 3 cohorts. In each cohort participants were randomized to receive an oral (Z)-Endoxifen or placebo in a blinded fashion. Enteric-resistant capsules used in the study were designed as delayed release capsules to resist rupture for at least 30 minutes, but typically, for about 2 hours, under gastric conditions and then open fully in intestinal fluid (DRCaps; Capsugel, a Lonza Company, USA). Enteric-resistant (Swedish Orange size Zero (0); Capsugel, USA) DRCaps capsules manually filled with 1, 2 or 4 mg of (Z)-endoxifen neat in compliance with GMP requirements were used. Placebo capsules contained microcrystalline cellulose an inert common capsule and tablet excipient.
Each cohort enrolled 8 participants, with 6 participants receiving (Z)-Endoxifen 1 mg capsules orally at 1 mg (Cohort 1), 2 mg (Cohort 2) or 4 mg (Cohort 3) doses and 2 participants receiving matching placebo capsules. In Cohort 1 (Dose Level=1 mg) two participants (sentinels) were dosed 24 hours prior to the remaining participants. One sentinel was dosed with (Z)-Endoxifen and the other with placebo. The remaining six participants in Cohort 1 were dosed as no safety concerns were identified in the sentinel participants. The non-sentinel participants in Cohort 1 were admitted to the clinical research facility at least one day later than the sentinels. There were no sentinels in Cohorts 2 and 3.
Participant engagement in this study was for a period of 56 days. These included a 28 day screening period, and a 7 day post treatment period for Pharmacokinetic (PK) sampling. There were two confinement periods, one at the beginning and one at the end of the dosing periods. Participants were confined to the clinical facility on Days-1 through to Day 2 and Days 21 and 22. If participants were to experience any clinically significant adverse events during the study, they would have been required to remain in the clinical facility for further observation at the discretion of the Principal Investigator (PI).
Healthy female volunteers were screened within 28 days prior to commencement of dosing. Participants were admitted to the clinical facility on Day-1 for up to 3 days. The first dose of (Z)-Endoxifen or placebo capsules was administered on Day 1. Following completion of all safety assessments and sampling for PK analyses, participants were discharged from the clinical facility on Day 2. The first dose on Day 1 was followed by a 6-day treatment free period (Days 2-7). Each participant returned to the clinical facility for PK blood draws and safety assessments during the treatment free period on study Days 4 and 6. On Day 8 participants commenced daily administration of (Z)-Endoxifen capsules or placebo capsules for 14 consecutive days (Days 8-21). Participants were supplied with study drug capsules and asked to self administer daily. Participants visited the clinical facility on Days 11, 14 and 17, prior to dose administration, for PK blood draws and safety assessments. On the morning of Day 21 each participant returned to the clinical facility prior to dose administration and were confined to the facility until Day 22 to allow for the collection of PK blood draws and safety assessments. The Day 21 dose was the last administration of study drug. Participants were discharged from the clinical facility on Day 22 and returned for PK blood draws and safety assessments on study Days 24, 26, and 28. […]

[1] = 4 mg, Day 1, dose 4 mg oral, GeoMean, N 6
[2] = 4 mg, Day 1, dose 4 mg oral, Mean, N 6
[3] = 4 mg, Day 1, dose 4 mg oral, Median, N 6

With `CC/C(=C(\c1ccc(O)cc1)c1ccc(OCCNC)cc1)c1ccccc1` [(Z)-Endoxifen, (Z)-4-(1-(4-(2-(methylamino)ethoxy)phenyl)-2-phenylbut-1-enyl) phenol] the AUC(0-t) (2 mg/day, Day 21, 2 mg/day oral (n = 6), read-out: AUC24 hr, Arithmetic Mean) was 911 ng·h/mL, the Cmax (2 mg/day, Day 21, 2 mg/day oral (n = 6), read-out: Cmax, Arithmetic Mean) was 50 ng/mL and the Tmax (2 mg/day, Day 21, 2 mg/day oral (n = 6), read-out: Median Tmax) was 4 h. It also gave a Tmax (2 mg/day, Day 21, 2 mg/day oral (n = 6), read-out: Tmax (Range)) of 2 to 6.05 h, a half-life (2 mg/day, Day 21, 2 mg/day oral (n = 6), read-out: t1/2, Arithmetic Mean (converted)) of 2600 min and an AUC(0-inf) [1] of 1700 ng·h/mL. It also gave an AUC(0-t) (4 mg, Day 1, dose 4 mg oral, GeoMean, N 6, read-out: AUC24hr) of 521 ng·h/mL, an AUC [1] of 1420 ng·h/mL and a Cmax (4 mg, Day 1, dose 4 mg oral, GeoMean, N 6, read-out: Cmax) of 29.1 ng/mL. For the same compound, the Tmax (4 mg, Day 1, dose 4 mg oral, GeoMean, N 6, read-out: Tmax) was 5.15 h, the half-life (4 mg, Day 1, dose 4 mg oral, GeoMean, N 6, read-out: apparent terminal half life (t½) (converted)) was 2440 min and the Vd/F [1] was 138 L. The AUC(0-inf) [2] was 2020 ng·h/mL, the AUC(0-t) (4 mg, Day 1, dose 4 mg oral, Mean, N 6, read-out: AUC24hr) was 587 ng·h/mL and the AUC [2] was 1650 ng·h/mL. For the same compound, the Cmax (4 mg, Day 1, dose 4 mg oral, Mean, N 6, read-out: Cmax) was 32.5 ng/mL, the Tmax (4 mg, Day 1, dose 4 mg oral, Mean, N 6, read-out: Tmax) was 5.56 h and the half-life (4 mg, Day 1, dose 4 mg oral, Mean, N 6, read-out: apparent terminal half life (t½) (converted)) was 2500 min. It also gave a Vd/F [2] of 154 L, an AUC(0-inf) [3] of 1760 ng·h/mL and an AUC(0-t) (4 mg, Day 1, dose 4 mg oral, Median, N 6, read-out: AUC24hr) of 539 ng·h/mL. For the same compound, the AUC [3] was 1420 ng·h/mL, the Cmax (4 mg, Day 1, dose 4 mg oral, Median, N 6, read-out: Cmax) was 29.5 ng/mL and the Tmax (4 mg, Day 1, dose 4 mg oral, Median, N 6, read-out: Tmax) was 5.08 h. The half-life (4 mg, Day 1, dose 4 mg oral, Median, N 6, read-out: apparent terminal half life (t½) (converted)) was 2390 min, the Vd/F [3] was 131 L and the AUC(0-t) (4 mg, Day 21, dose 4 mg oral once daily, GeoMean, N 6, read-out: AUC24hr) was 1740 ng·h/mL. For the same compound, the Cmax (4 mg, Day 21, dose 4 mg oral once daily, GeoMean, N 6, read-out: Cmax) was 100 ng/mL, the Tmax (4 mg, Day 21, dose 4 mg oral once daily, GeoMean, N 6, read-out: Tmax) was 4.75 h and the half-life (4 mg, Day 21, dose 4 mg oral once daily, GeoMean, N 6, read-out: apparent terminal half life (t½) (converted)) was 2680 min. For the same compound, the Vd/F (4 mg, Day 21, dose 4 mg oral once daily, GeoMean, N 6) was 148 L, the AUC(0-t) (4 mg, Day 21, dose 4 mg oral once daily, Mean, N 6, read-out: AUC24hr) was 2040 ng·h/mL and the Cmax (4 mg, Day 21, dose 4 mg oral once daily, Mean, N 6, read-out: Cmax) was 115 ng/mL. The Tmax (4 mg, Day 21, dose 4 mg oral once daily, Mean, N 6, read-out: Tmax) was 5.33 h, the half-life (4 mg, Day 21, dose 4 mg oral once daily, Mean, N 6, read-out: apparent terminal half life (t½) (converted)) was 2710 min and the Vd/F (4 mg, Day 21, dose 4 mg oral once daily, Mean, N 6) was 189 L. The AUC(0-t) (4 mg, Day 21, dose 4 mg oral once daily, Median, N 6, read-out: AUC24hr) was 2470 ng·h/mL, the Cmax (4 mg, Day 21, dose 4 mg oral once daily, Median, N 6, read-out: Cmax) was 131 ng/mL and the Tmax (4 mg, Day 21, dose 4 mg oral once daily, Median, N 6, read-out: Tmax) was 5 h. The half-life (4 mg, Day 21, dose 4 mg oral once daily, Median, N 6, read-out: apparent terminal half life (t½) (converted)) was 2720 min, the Vd/F (4 mg, Day 21, dose 4 mg oral once daily, Median, N 6) was 106 L and the AUC(0-t) (4 mg/day, Day 1, 4 mg/day oral (n = 6), read-out: AUC24 hr, Arithmetic Mean) was 587 ng·h/mL. The Cmax (4 mg/day, Day 1, 4 mg/day oral (n = 6), read-out: Cmax, Arithmetic Mean) was 32.5 ng/mL, the Tmax (4 mg/day, Day 1, 4 mg/day oral (n = 6), read-out: Median Tmax) was 5.08 h and the Tmax (4 mg/day, Day 1, 4 mg/day oral (n = 6), read-out: Tmax (Range)) was 3 to 6 h. It also gave a half-life (4 mg/day, Day 1, 4 mg/day oral (n = 6), read-out: t1/2, Arithmetic Mean (converted)) of 2500 min, an AUC(0-t) (4 mg/day, Day 21, 4 mg/day oral (n = 6), read-out: AUC24 hr, Arithmetic Mean) of 2040 ng·h/mL and a Cmax (4 mg/day, Day 21, 4 mg/day oral (n = 6), read-out: Cmax, Arithmetic Mean) of 115 ng/mL. It also gave a Tmax (4 mg/day, Day 21, 4 mg/day oral (n = 6), read-out: Median Tmax) of 5 h, a Tmax (4 mg/day, Day 21, 4 mg/day oral (n = 6), read-out: Tmax (Range)) of 2 to 10 h and a half-life (4 mg/day, Day 21, 4 mg/day oral (n = 6), read-out: t1/2, Arithmetic Mean (converted)) of 2710 min. The “time to attain steady state” value was ≤ 7 days and the “time to attain steady state” value (listed as (Z)-endoxifen) was “approximately 7 days”.
